≈ marks a conversion by molar mass, not a printed value.
Legend:
[1] = test system: EMT6 cells; experiment: Cellular uptake of DOX by confocal laser scanning microscopy; assay type: cell-based, murine; details: for Mean Fluorescence Intensity: 5 μg DOX/ml
Description: (§1) EMT6 (murine breast tumor) and the resistant variant, EMT6/AR1 cells overexpressing P-glycoprotein were purchased from the National Cancer Institute (Bethesda, Md.). EMT6 cells were cultured in DMEM medium with 10% FBS, penicillin (100 U/ml) and streptomycin (100 μg/ml) at 37° C. with 5% CO2.
Cellular uptake of DOX was imaged by confocal laser scanning microscopy (CLSM). EMT6 cells were seeded on a cover slip placed in a 24-well plate (1×10^5 cell/well) for 24 h prior to the study. […] The medium was removed and the cells were washed with PBS twice before fixation with 10% of formaldehyde at room temperature for 20 min. The cover slip was then washed for another 2 times with PBS and mount on a glass slide with fluorescence shield containing DAPI. The cells were imaged under a Zeiss™ confocal microscope (LSM 700™) and the image was analyzed using the CellProfiler™ (Version 3.0) software.

[2] = test system: EMT6 cells; experiment: Cellular uptake in the presence of apolipoprotein; assay type: cell-based, murine; details: 4 hours, apolipoprotein 5, 20, 100 μg/ml
Description: EMT6 cells were seeded in 12 wells on cover slip over night to be confluent. […] After treatment, the cover slips were fixed with 10% and were then mounted on slide with a DAPI contained fluorescence shield. The slides were imaged under a confocal microscopy. Doxorubicin signal in those images were then quantified by Cellprofiler™.

[3] = test system: EMT6 murine breast cancer cells; experiment: In vitro cytotoxicity (MTT assay); assay type: cell-based
Description: as §1
EMT6 cells were seeded on a 96-well plate (1000 cells/well). Wells with medium only were used as blank. […] Two days later, 5 μl of MTT solution (5 mg/ml) was added to each well, followed by 4-h incubation. The medium was removed and 100 μl DMSO was added into each well, followed by incubation at room temperature for 15 min. Absorbance at 540 nm in each well was then measured by a plate reader. The cell viability was calculated as (Abs−Abblank)/(Ab100−Abblank)×100%, where Abs is the Absorbance540 nm for the experimental group, Abblank is the Absorbance540 nm of sample without cells and Ab100 is the Absorbance540 nm of sample without treatment.

COc1cccc2c1C(=O)c1c(O)c3c(c(O)c1C2=O)C[C@@](O)(C(=O)CO)C[C@@H]3O[C@H]1C[C@H](N)[C@H](O)[C@H](C)O1 [DOX, doxorubicin]
change of DOX cellular uptake in the presence of serum versus serum free ([1]; EMT6 cells, 4 hr): did not significantly change
Mean Fluorescence Intensity ([1]; EMT6 cells, 4 hr, 10% Serum): 0.247 ± 0.021
Mean Fluorescence Intensity ([1]; EMT6 cells, 4 hr, Without Serum): 0.258 ± 0.014
increased cellular uptake relative to PFSUVs-DOX and PLD ([1]; absence of serum): ~15 fold
effect of increasing concentrations of apolipoproteins on internalization [2]: no influence
in vitro potency, fold more effective than PFSUVs-dox [3]: 4 fold
IC50 ([3]; MTT, curve fitting): 0.025 µg/mL (≈ 0.046 µM)
